Assay results reported in US4950658A, “Method of medical treatment of Alzheimer's disease” (priority 1988, dated 1990).

Assays:
brain cholinesterase [1] = settings: cited from earlier work
acetylcholine [2] = settings: cortex, striatum, hippocampus and midbrain; cited from earlier work
cholinesterase [3] = settings: when normal acetylcholine levels are regained (within 24 hours) after acute administration; cited from earlier work
acetylcholine [4] = settings: acute administration, all brain regions; cited from earlier work
[5] = with loss of enzymatic inhibitory activity; cited from earlier work
plasma cholinesterase = test: Plasma cholinesterase inhibition by naled, DDVP and metrifonate; type: biochemical
From the text: Unlike metrifonate, which acts as a slow release formulation, naled degrades rapidly in vivo to the metabolite DDVP. […] The slightly lower values in inhibition observed for naled than that of DDVP can be attributed to its higher molecular weight. […] All the cholinesterase inhibition activity of naled is a result of the formation of DDVP.

brain cholinesterase [6] = test: Cholinesterase activity in rat after intramuscular inhibitor; type: in vivo; settings: for activity of cholinesterase: 80 mg/Kg intramuscular
acetylcholine [7] = test: Acetylcholine levels in rat brain after one or two consecutive administrations; type: in vivo
From the text: The second administration of the drugs was timed so as to allow acetylcholine levels to return to approximately (+12%) control levels and the concentration of the drug was the highest that would allow 100% survival.

cholinesterase [8] = test: Cholinesterase activity in rat brain regions after intracerebroventricular metrifonate; type: in vivo; settings: 2.5 mg intracerebroventricularly, injected side, 30 min
Protocol: (§1) Levels of acetylcholine increased by 45% at 45 min. then returned to normal by 120 min. When metrifonate (2.5 mg) was given intracerebroventricularly the activity of cholinesterase decreased in the injected side at 30 min. to 20% in hippocampus, 22% in the medulla, 50% in the cerebellum, 58% in the striatum and 72% in the cortex.

acetylcholine [9] = test: Acetylcholine levels in rat brain regions after intracerebroventricular metrifonate; type: in vivo; settings: 2.5 mg intracerebroventricularly
Protocol: as §1

[10] = test system: Alzheimer's disease patients; test: Open metrifonate study in Alzheimer's disease patients, ADAS; type: in vivo
Protocol: We have administered metrifonate to 15 Alzheimer's disease patients. Patients were diagnosed using Diagnostic Statistical Manual IIIR criteria. […] Patients with moderately severe Alzheimer's disease were accepted to explore for effects of severity on drug response.
(§2) Patients were tested using the Alzheimer's Disease Assessment Scale (ADAS) (Rosen et al 1984), Mini Mental State Examination (Folstein et al 1975), a Clincial Global Assessment Scale (Guy 1973) and a rating scale for side effects. A laboratory battery to assess hematopoietic, hepatic, urinary and cardiac status, physical examination, vital signs and measurement of blood cholinesterase activities were completed. Patients were then given in a single oral dose under open conditions metrifonate 2.5 mg/Kg and 5 mg/Kg on successive weeks and reassessed 1, 4 and 7 days after the 2.5 mg/Kg dose and 4 and 7 days after the 5 mg/Kg dose. Patients were next administered metrifonate one month later after a second baseline assessment (blood cholinesterase have returned to initial values by 1 month) and were given on four successive weeks 7.5 mg/Kg, 7.5 mg/Kg, 15 mg/Kg and 15 mg/Kg and assessed 7 days after each dosing prior to administration of the next dose. At each assessment all the cognitive and medical studies at baseline were repeated.
To identify responders we used the criterion of an improvement of 4 points on the ADAS. Among 5 patients who have received all four dosage levels we have identified 5 as responders, among 10 patients who have received both the 2.5 and 5 mg/Kg doses we have identified 5 responders for a total of 10 responders identified. […] The longest term patients (n=5) were on metrifonate for a total of four months.
In the completed patients the preferred dose, defined as maximum improvement without interfering side effects, was identified. Best doses ranged from 2.5 to 7.5 mg/Kg. Lower doses of about 0.5 mg/Kg were also operable.

[11] = test system: cholinesterase and acetylcholinesterase in blood; test: Blood cholinesterase activities in Alzheimer's disease patients on metrifonate; type: in vivo; settings: 15 patients, 4-16 weeks of once weekly drug
Protocol: as §2
(§3) In sum we have successfully administered metrifonate to 15 patients (4-16 weeks of once weekly drug) without the appearance of side effects except for nausea and vomiting in four patients that has not reoccurred following administration of the highest dose as a divided dose over two days. […]

[12] = Side effects in Alzheimer's disease patients on metrifonate; type: in vivo
Protocol: as §2, §3

[13] = test system: plasma acetycholinesterase; settings: in vivo; cited from earlier work
[14] = test system: brain acetylcholinesterase; settings: 125 mg/kg intraperitoneal, within 15 minutes; cited from earlier work
acetylcholine [15] = settings: 125 mg/kg intraperitoneal, simultaneous with inhibition; cited from earlier work
acetylcholinesterase = settings: cited from earlier work
[16] = in vivo; cited from earlier work
[17] = Side effects of cholinesterase inhibitors in rats; parameters: animals with facial clonus / animals with sedation: dose or concentration left out as unconfirmed
[18] = test system: 3H-choline accumulation and K+ evoked acetylcholine release; test: 3H-choline accumulation and K+ evoked acetylcholine release in vitro; settings: concentration giving 100% inhibition of cholinesterase in vitro; after each of two doses
Alzheimer patients = settings: i.v. administration; cited from earlier work
[19] = physostigmine i.m., tetrahydroaminoacridine 15 mg/Kg
[20] = tetrahydroaminoacridine 15 mg/Kg

COP(=O)(OC)OC=C(Cl)Cl [DDVP, 2,2 dichlorovinyl dimethyl phosphate]
time to become active as inhibitor of brain cholinesterase (brain cholinesterase [1]; in vivo): one | inhibition of brain cholinesterase (brain cholinesterase [1]; maximal (up to)): up to 96% | time to peak accumulation of acetylcholine (acetylcholine [2]): ≤ 5 min | cholinesterase still inhibited (cholinesterase [3]): 35% | time to regain normal acetylcholine levels (acetylcholine [4]): ≤ 24 h | inactivation by oxidative metabolism [5]: rapidly inactivated

COP(=O)(OC)C(O)C(Cl)(Cl)Cl (stereo not drawn) [metrifonate]
increase necessary to obtain the same amount of plasma cholinesterase inhibition (plasma cholinesterase; relative to naled/DDVP): 10 fold | activity of cholinesterase (brain cholinesterase [6]; 30 min): 26% | activity of cholinesterase (brain cholinesterase [6]; 180 min): 50% | activity of cholinesterase (brain cholinesterase [6]; 360 min): 74% | peak cholinesterase inhibition (brain cholinesterase [6]; at the doses used): 85% | time of peak cholinesterase inhibition (brain cholinesterase [6]; at the doses used): 30 min | time of return of acetylcholine to normal (acetylcholine [7]; 80 mg/Kg intramuscular): ≤ 120 min | increase in levels of acetylcholine (acetylcholine [7]; 80 mg/Kg intramuscular, 45 min): 45% | time at which acetylcholine returned practically to control levels (acetylcholine [7]; first administration): 90 min | time at which the peak value of acetylcholine was reached (acetylcholine [7]; first administration): 45 min | increase in acetylcholine levels after the first administration (acetylcholine [7]; rat brain, first of two consecutive administrations): 45% | duration of the acetylcholine increase after the second administration (acetylcholine [7]; second consecutive administration): 120 min | increase in acetylcholine after the second administration (acetylcholine [7]; second consecutive administration, highest dose allowing 100% survival): 33% | activity of cholinesterase, cerebellum (cholinesterase [8]): 50% | activity of cholinesterase, cortex (cholinesterase [8]): 72% | activity of cholinesterase, hippocampus (cholinesterase [8]): 20% | activity of cholinesterase, medulla (cholinesterase [8]): 22% | activity of cholinesterase, striatum (cholinesterase [8]): 58% | maximal level of acetylcholine, hippocampus and cortex (acetylcholine [9]; 45 min): 160 % of baseline | peak level of acetylcholine, striatum (acetylcholine [9]; 60 min): 155 % of baseline | effect of the highest dose on cognitive performance ([10]; 15 mg/KG): deterioration in cognitive performance | clinical effect of once weekly dosing ([10]; 0.5 to 15 mg/Kg body weight/week, significant number of Alzheimer's disease patients): improvement in memory, cognition and other behaviors | total of responders identified ([10]; 15 patients): 10 | effect of lower doses ([10]; about 0.5 mg/Kg): operable | change on the ADAS in responders ([10]; all responders): ≥ 9 | responders (improvement of 4 points on the ADAS) ([10]; among 5 patients who received all four dosage levels): 5 | responders (improvement of 4 points on the ADAS) ([10]; among 10 patients who received both the 2.5 and 5 mg/Kg doses): 5 | inhibition of cholinesterase and acetylcholinesterase in blood [11]: up to 80% | patients with nausea and vomiting ([12]; 15 patients, 4-16 weeks of once weekly drug): four | adverse, side or toxic effects ([12]; up to 15 mg/Kg body weight/week, except occasional nausea and vomiting): have not occurred | half life of cholinesterase inhibition [13]: 120 to 140 h | inhibition of brain acetylcholinesterase [14]: 70% | change in acetylcholine (acetylcholine [15]): increase | activity of the precursor itself against acetylcholinesterase (acetylcholinesterase): not active | absorption in humans [16]: rapidly absorbed | tolerance in humans [16]: relatively few side effects | seizures ([17]; metrifonate 80 mg/Kg 1M): did not occur | survival ([17]; metrifonate 80 mg/Kg 1M): all animals survived | time at which symptoms developed after the injection ([17]; metrifonate 80 mg/Kg 1M): 20 to 35 min | side effects compared with the other two drugs ([17]; metrifonate 80 mg/Kg 1M vs physostigmine and tetrahydroaminoacridine): less frequent and less severe

COP(=O)(OC)OC(Br)C(Cl)(Cl)Br (stereo not drawn) [naled, 1,2-dibromo-2,2-dichlorvoethyl dimethyl phosphate]
plasma cholinesterase inhibition compared with DDVP (plasma cholinesterase): parallel to that by DDVP | inherent cholinesterase inhibition activity (plasma cholinesterase; conclusion from comparison with DDVP): without inherent cholinesterase inhibition activity of its own

CNC(=O)Oc1ccc2c(c1)[C@]1(C)CCN(C)[C@@H]1N2C [physostigmine]
3H acetylcholine release [18]: significantly more | studies that have shown improvement in memory (Alzheimer patients): 6 out of 9 | animals with splay of hind limbs ([17]; physostigmine 300 mg/Kg i.m.): 25% | animals with facial clonus ([17]; physostigmine i.m.): 15% | animals with sedation ([17]; physostigmine i.m.): 10% | animals with fasciculations [17, 19]: 60% | animals with tremor [17, 19]: 30%

Nc1c2c(nc3ccccc13)CCCC2 [tetrahydroaminoacridine]
animals with fasciculations [17, 19]: 25% | animals with tremor [17, 19]: 25% | animals with facial and forelimb clonus [17, 20]: 10% | animals with generalized seizures [17, 20]: 4% | animals with increased salivation [17, 20]: 60% | animals with lacrimation [17, 20]: 40% | animals with pronounced splay [17, 20]: 35% | interval between generalized seizures [17, 20]: 5 to 10 min
